Tests used:
[1] = test system: Pseudomonas aeruginosa; assay: Bacterial growth inhibition assay, P. aeruginosa; type: cell-based
Procedure: (§1) Bacteria were streaked from glycerol stocks onto agar plates and grown overnight at 37°C. A single colony was inoculated in either Tryptic Soy Broth (TSB; Sigma-Aldrich, St. Louis, MO; used for most species) or Bacto Brain Heart Infusion (BHI; Becton, Dickinson, and Company, Franklin Lakes, NJ; used for L. monocytogenes and S. pyogenes) and grown at 37°C shaking until mid-exponential phase (OD600 = 0.5), then diluted 1:10 in cation-adjusted Mueller Hinton Broth (MHB2, Millipore Sigma, Bedford, MA; used for most species) or BHI (for L. monocytogenes and S. pyogenes). 15 μl of this dilution was added to 135 μl of MHB2 or BHI in a flat-bottom clear 96-well plate for a starting inoculum of ~ 5 × 10^5 CFU/ml.
For bacterial growth inhibition assay, wild-type S. aureus and transposon mutants (fphB::Tn, fphE::Tn and fphH::Tn) were grown with compounds at final concentrations ranging from 1–100 μM and compared to growth in media with an equivalent percentage of DMSO. […] All growth curves were repeated at least twice and analyzed in GraphPad Prism 10.0 software. […] The cultures were incubated overnight at 37°C, 5% CO2 before their optical density was read. The EC50 of the antibiotics against the bacteria in the presence or absence of N34 were determined by fitting the normalized data into a four-parameter logistic model in GraphPad Prism 10.0 software.

[2] = target: T1, recombinant FphE (rFphE) (Staphylococcus aureus, UniProt Q2FDS6); assay: biochemical; conditions: IC50 rFphE, value in nM
T1 construct: otherwise full-length FphE (Uniprot ID Q2FDS6) and FphH (A0A0H2XJL0) proteins; His6 (3C-cleavable, pETNKI-his-3C-LIC vector) (N); made in house; E. coli is inferred from the pET28a-type vector, IPTG induction and LB/kanamycin
T1 sequence (Q2FDS6 1-276): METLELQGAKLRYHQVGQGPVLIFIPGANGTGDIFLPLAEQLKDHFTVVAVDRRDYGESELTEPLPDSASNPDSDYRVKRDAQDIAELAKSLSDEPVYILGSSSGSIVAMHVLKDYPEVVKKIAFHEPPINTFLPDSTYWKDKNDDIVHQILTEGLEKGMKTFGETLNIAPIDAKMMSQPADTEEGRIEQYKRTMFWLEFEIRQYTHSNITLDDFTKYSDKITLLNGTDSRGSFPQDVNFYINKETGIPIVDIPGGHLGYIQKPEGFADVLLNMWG
Procedure: Fluorogenic substrate assays were performed as previously described[9],[11],[12]. […] Turnover rates in the linear phase of the reaction (10–20 min) were calculated using GraphPad prism 10.0 software as RFU/min. Rates were normalized by subtracting background hydrolysis rates measured for each substrate in reaction buffer in the absence of protein.
For the screening, 8 μL of enzyme solution was pipetted into the assay plates containing 50 nL compound and allowed to incubate for one hour at room temperature. […] For four-point dose response plates, 2.5, 10, 25, 50 nL droplets were transferred to get […], 10, 25, 50 μM compound concentrations in the 384 well plates again using an Echo acoustic liquid handler as above. […] Calculations were done with GraphPad Prism 10.0 software. […] IC50 values were derived from the fitted curve.

[3] = Cytotoxicity assay (CellTiter-Blue); type: cell-based; conditions: human; HEK293 cells, 48hr of incubation
[4] = target: T2, rFphE (Staphylococcus aureus, UniProt Q2FDS6); assay: FP-Cy5 active site labeling competition of recombinant protein, rFphE; type: binding
T2 construct: otherwise full-length FphE (Uniprot ID Q2FDS6) and FphH (A0A0H2XJL0) proteins; His6 (3C-cleavable, pETNKI-his-3C-LIC vector) (N); made in house; E. coli is inferred from the pET28a-type vector, IPTG induction and LB/kanamycin
T2 sequence (Q2FDS6 1-276): T1 sequence (Q2FDS6 1-276)
Procedure: (§2) For activity-based protein labeling experiments, 500 nM of rFphB, rFphE and rFphH in 1X PBS and 0.1% Triton–X were preincubated with different concentrations of inhibitors or DMSO for 2hr at room temperature, followed by adding 300 nM of fluorophosphonate (FP) alkyne and incubated for 30 min at room temperature. Next, 20 μL of the reaction volume were mixed with 2.16 μL of freshly prepared click mix (0.5 μL of 50 mM CuSO4 in H2O, 1.16 μL of 100 mM BTTAA in DMSO, and 0.5 μL of N3-Cy5 in DMSO) and 1.16 μL of 300 mM sodium ascorbate solution in H2O. Samples were incubated at 37°C for 30 min, boiled in SDS loading buffer and analyzed by SDS–PAGE. Cy5 fluorescence was imaged using the Cy5 channel on a Typhoon 9410 Imager (Amersham Biosciences).

[5] = test system: S. aureus biofilm formation; assay: Crystal violet biofilm inhibition assay; type: cell-based, Staphylococcus aureus; conditions: fphH or fphE transposon mutant
Procedure: Overnight cultures of S. aureus (wild-type, transposon mutants and complemented) strains (Table S3) grown in TSB, were subcultured on fresh TSB and grown to OD600 of 0.5. Biofilms were cultured in 96 well plates by transferring 1 μL of the culture to 200 μL of TSB plus 1% glucose with or without the inhibitors and incubated for 16 hours at 37°C without agitation. The inhibitor concentrations ranged from 1, 5, 10, 50 and 100 μM final concentration. Equal volume of DMSO was added as control. The wells were washed to remove the planktonic cells and the plates air-dried before staining with 200μL of 0.1% w/v crystal violet for 10 minutes at room temperature. The wells were washed to remove excess dye and blotted to dry. Each well was filled with 200μL of DMSO for 10 minutes at room temperature to dissolve the dye. The absorbance was measured at 590 nm using Spark multimode microplate reader (TECAN). The data represents n = 3 independent experiments and are expressed as a percentage of the uninhibited wild-type bacteria. All the data are normalized such that 100% represent untreated WT S. aureus. P values were determined using ordinary one-way ANOVA multiple comparisons GraphPad Prism 10.0 software. *P < 0.05, **P < 0.01, ***P < 0.001 and ****P < 0.0001.

[6] = test system: S. aureus wild type and fph transposon mutants; assay: Bacterial growth inhibition assay, S. aureus; type: cell-based, Staphylococcus aureus; conditions: 1–100 μM
Procedure: as §1
For bacterial growth inhibition assay, wild-type S. aureus and transposon mutants (fphB::Tn, fphE::Tn and fphH::Tn) were grown with compounds at final concentrations ranging from 1–100 μM and compared to growth in media with an equivalent percentage of DMSO. Each condition was plated as technical duplicates. The plate was incubated at 37°C with shaking every 15 minutes followed by measurement of OD600 for 14 hr. All growth curves were repeated at least twice and analyzed in GraphPad Prism 10.0 software. For bacterial resistance analysis, overnight culture of S. aureus Newman was diluted to an OD600 of 0.01 in MHB. This was followed by pretreatment with 20 μM N34 or equivalent DMSO volume as control. The pretreatment was allowed to proceed for 3 hr before initiating treatment with different concentrations of the test antibiotics (Table S5). The cultures were incubated overnight at 37°C, 5% CO2 before their optical density was read. The EC50 of the antibiotics against the bacteria in the presence or absence of N34 were determined by fitting the normalized data into a four-parameter logistic model in GraphPad Prism 10.0 software.

[7] = target: T3, rFphH (Staphylococcus aureus, UniProt A0A0H2XJL0); assay: FP-Cy5 active site labeling of recombinant protein, rFphH; type: binding; conditions: recombinant protein
T3 construct: otherwise full-length FphE (Uniprot ID Q2FDS6) and FphH (A0A0H2XJL0) proteins; His6 (3C-cleavable, pETNKI-his-3C-LIC vector) (N); made in house; E. coli is inferred from the pET28a-type vector, IPTG induction and LB/kanamycin
T3 sequence (A0A0H2XJL0 1-246): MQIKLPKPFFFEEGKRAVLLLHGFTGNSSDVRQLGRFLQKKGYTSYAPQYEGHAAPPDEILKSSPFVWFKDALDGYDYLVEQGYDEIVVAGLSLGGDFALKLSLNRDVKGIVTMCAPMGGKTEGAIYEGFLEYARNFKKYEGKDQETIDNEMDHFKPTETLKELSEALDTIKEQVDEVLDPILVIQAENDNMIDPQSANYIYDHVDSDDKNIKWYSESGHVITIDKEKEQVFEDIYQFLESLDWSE
Procedure: as §2

SMILES: OB(O)c1csc2ccccc12 [Z27, Benzo[b]thiophen-3-ylboronic acid]
- growth defect (in words) [1]: no significant growth defect
- IC50 [2]: 50 nM
- CC50 at 48 h [3]: > 200 µM
- concentration inhibiting FP-Cy5 labeling of rFphE [4]: > 50 µM
- effect on biofilm formation in transposon mutants (in words) [5]: further reduced by the inhibitor Z27 only at the highest concentrations used (50 and 100 μM)
- effect on S. aureus growth (in words) [6]: reduced growth for only the fphE mutant
- concentration inhibiting FP-Cy5 labeling of rFphH [7]: > 50 µM
